How the values were obtained:
cerebellar granule cells = test: Oligonucleosome formation (cell death detection ELISA), serum deprivation; format: cell-based, rat; conditions: for apoptosis (oligonucleosome formation) induced by the absence of FCS: curcumin 1, 5, 10, 25 and 50 μM
Description: Primary cultures of cortical neurons and cerebellar granule cells were prepared. In brief, cortical neurons were prepared from fetal brain from 17-day pregnant rat and cerebellar granule cells from 8-day old rats. Brain tissues were dissociated through trypsinization in 0.025% trypsin solution and trituration. Dissociated cells were collected through centrifugation and resuspended in standard medium containing: basal Eagle's medium containing 10% fetal bovine serum (FCS), 2 mM glutamine, genatmycin 0.05 mg/ml, and 25 mM KCI. Cells were plated at a density of 1.8×10^6 onto 35-mm dishes coated with 10 micrograms/ml ply-L-lysine.
To induce programmed cell death in […] granule cells, two different experimental well-established paradigms: serum deprivation and low K^+, were performed. In particular, neurons were cultured after their plating in serum free medium containing 25 mM KCI or in standard medium for 6 days and then agitating them in a medium containing 10% FCS and 5 mM KCI. In both of these paradigms, control cells were grown in medium containing 10% FCS and 25 mM KCI.
To induce apoptosis in cortical neurons, β-amyloid peptide (1-40), a molecule related to the pathogenesis of Alzheimer disease and a well known inducer of apoptosis was added.

HO-1 = HO-1 protein expression, Western blot, cortical neurons; format: cell-based, rat
Description: (§1) HO-1 and hsp70 protein levels were assessed by Western immunoblot technique using a polyclonal rabbit anti-HO-1 antibody (Stressgen; Victoria, Canada), and a polyclonal rabbit hsp70 antibody. Briefly, an equal amount of proteins (30 μg) for each sample was separated by SDS-polyacrylamide gel electrophoresis and transferred to nitrocellulose membranes, and the non-specific antibodies were blocked with 3% non-fat dried milk in PBS. Membranes were then probed with a polyclonal rabbit anti HO-1 antibody (Stressgen) (1:1000 dilution in Tris-buffered saline, pH 7,4) or with a monoclonal rabbit anti-Hsp72 antibody (Amersham Pharmacia Biotechnology) (1:1000 dilution in Tris-buffered saline, pH 7,4), that recognizes only the Hsp 70 inducible isoform. Blots were then visualized using an amplified alkaline phosphate kit from Sigma.

heme oxygenase = test: Heme oxygenase activity assay in astrocytes; format: cell-based
Description: Type 1 astrocytes (DI TNC1) were purchased from the American Type Culture Collection (Manassas, VA) and cultured in Dulbecco's modified Eagle's medium containing 4.5 g/l glucose, 2 mM glutamine, 100 units/ ml penicillin, and 0.1 mg/ml streptomycin and supplemented with 10% fetal bovine serum. Cells were grown in 75-cm^2 flasks and maintained at 37° C. in a humidified atmosphere of air and 5% CO2. Confluent cells were exposed to various concentrations of curcumin, CAPE, or Curcumin-95. After each treatment (6 or 24 h), cells were harvested for the determination of heme oxygenase activity, HO-1 protein expression, and intracellular glutathione. Astrocytes growing in 24 wells were exposed to polyphenolic compounds, and cell viability was determined at 24 h. Heme oxygenase activity was determined at the end of each treatment as described previously by Foresti, et al.^18 and Motterlini, et al.^19 Briefly, microsomes from harvested cells were added to a reaction mixture containing NADPH, glucose-6-phosphate dehydrogenase, rat liver cytosol as a source of biliverdin reductase, and the substrate hemin. The reaction mixture was incubated in the dark at 37° C. for 1 h and was terminated by the addition of 1 ml of chloroform. After vigorous vortex and centrifugation, the extracted bilirubin in the chloroform layer was measured by the difference in absorbance between 464 and 530 nm (ε=40 mM^−1cm^−1).

[1] = test system: Type 1 astrocytes (DI TNC1); test: Cell viability of astrocytes, Alamar Blue; format: cell-based; conditions: 24 h; for cytotoxic action in the presence of NAC: 1 mM NAC, curcumin 100 μM, CAPE 50 μM and 100 μM; for cell viability and cell morphology: concentration not exceeding 30 μM
Description: Type 1 astrocytes (DI TNC1) were purchased from the American Type Culture Collection (Manassas, VA) and cultured in Dulbecco's modified Eagle's medium containing 4.5 g/l glucose, 2 mM glutamine, 100 units/ ml penicillin, and 0.1 mg/ml streptomycin and supplemented with 10% fetal bovine serum. Cells were grown in 75-cm^2 flasks and maintained at 37° C. in a humidified atmosphere of air and 5% CO2. Confluent cells were exposed to various concentrations of curcumin, CAPE, or Curcumin-95. After each treatment (6 or 24 h), cells were harvested for the determination of heme oxygenase activity, HO-1 protein expression, and intracellular glutathione. Astrocytes growing in 24 wells were exposed to polyphenolic compounds, and cell viability was determined at 24 h. Astrocytes were exposed to curcumin or CAPE for the indicated times, and cell viability was assessed with the use of an Alamar Blue assay according to manufacturer's instructions (Serotec; Oxford, UK) as reported previously^11. At the end of each treatment, cells were washed twice and incubated for an additional 5 h in complete medium containing 1% Alamar Blue solution. Optical density in each sample was measured using a plate reader (Molecular Devices; Crawley, UK). The intensity of the color developed in the medium is proportional to the viability of cells, which is calculated as the difference in absorbance between 570 and 600 nm and expressed as percentage of control.

[2] = test system: Type 1 astrocytes (DI TNC1); test: Intracellular glutathione (GSH, GSSG) in astrocytes; format: cell-based
Description: Type 1 astrocytes (DI TNC1) were purchased from the American Type Culture Collection (Manassas, VA) and cultured in Dulbecco's modified Eagle's medium containing 4.5 g/l glucose, 2 mM glutamine, 100 units/ ml penicillin, and 0.1 mg/ml streptomycin and supplemented with 10% fetal bovine serum. Cells were grown in 75-cm^2 flasks and maintained at 37° C. in a humidified atmosphere of air and 5% CO2. Confluent cells were exposed to various concentrations of curcumin, CAPE, or Curcumin-95. After each treatment (6 or 24 h), cells were harvested for the determination of heme oxygenase activity, HO-1 protein expression, and intracellular glutathione. […] GSH and GSSG levels were measured after 6- and 24- h exposure of astrocytes to curcumin and CAPE using a method previously described^19,20. Briefly, cells harvested in cold PBS were freeze-thawed three times, and an aliquot of this suspension was added to a buffer solution containing 12 mM EDTA and 10 mM 5,5′-dithiobis-(2-nitrobenzoic acid). Total glutathione was measured spectrophotometrically (optical density=412nm) using the glutathione reductase-recycling assay. To determine the amount of GSSG, an aliquot of the cell suspension was added to an equal volume of buffer containing EDTA and N-ethylmaleimide (10 mM). The sample was mixed and centrifuged, and the supernatant was passed through a C18 Sep-Pak cartridge (Waters, Milford, Mass.) to remove the excess N-ethylmaleimide. The sample was added to a cuvette containing 5,5′-dithiobis-(2-nitrobenzoic acid) and glutathione reductase, and the assay was performed as for the measurement of total glutathione. Intracellular glutathione was determined by comparison with a standard curve obtained with GSH and GSSG solutions and was expressed as nmoles/mg of protein.

hsp70 = hsp70 protein expression, Western blot, cortical neurons; format: cell-based, rat
Description: as §1

[3] = high concentrations (50 and 100 μM)

SMILES | concentration with strongest / most effective anti-apoptotic effect (cerebellar granule cells) [µM] | apoptosis (oligonucleosome formation) induced by the absence of FCS (cerebellar granule cells) | HO-1 protein expression / HO-1 induction (HO-1) | heme oxygenase activity (heme oxygenase; [3]) | reduction in cell viability ([1]; 50 μM) [%] | reduction in cell viability ([1]; 100 μM) [%] | cytotoxic action in the presence of NAC [1] | cell viability and cell morphology [1] | intracellular GSH ([2]; 6 h, 50 μM) | intracellular GSH ([2]; 6 h, 15 and 30 μM) | also measured
O=C(/C=C/c1ccc(O)c(O)c1)OCCc1ccccc1 [CAPE, Caffeic acid phenethyl ester] | 25 | strong dose-dependent anti-apoptotic effect | strongly induce HO-1 | unable to stimulate an increase in heme oxygenase activity | 61 | 78 | significantly attenuated the cytotoxic action | fully preserved | did not affect GSH | elevation of GSH | concentration of maximal enzyme activation (heme oxygenase): 30 µM; enzyme activation and protein expression at 100 μM compared with 30 μM (heme oxygenase; 100 μM): significantly less effective; heme oxygenase activity (heme oxygenase; low concentrations 15-50 μM): substantial increase; intracellular GSH ([2]; 24 h, 50 μM): significant depletion of GSH; intracellular GSSG ([2]; 24 h, 50 μM): concomitant elevation in GSSG; intracellular GSH ([2]; 24 h, 15 and 30 μM): marked reduction
COc1cc(C=CC(=O)CC(=O)C=Cc2ccc(O)c(OC)c2)ccc1O [curcumin, 1,7-bis[4-Hydroxy-3-methoxyphenyl]-1,6-heptadiene-3,5-dione] | 25 | significantly reduced apoptosis | directly correlated with HO-1 protein levels | unable to stimulate an increase in heme oxygenase activity | 20 | 63 | significantly attenuated the cytotoxic action | fully preserved | without affecting the GSH content | significant increase | hsp70 protein expression (hsp70): induced hsp70 protein expression; increase in heme oxygenase activity (heme oxygenase; 6 h, 15 μM): 7.4 fold; increase in heme oxygenase activity (heme oxygenase; 6 h, 30 μM): 9.1 fold; heme oxygenase activity (heme oxygenase; 6 h, 30 μM (control 247±5)): 2461±194 pmol of bilirubin/mg of protein/h; heme oxygenase activity (heme oxygenase; 6 h, 30 μM plus 1 mM NAC): 2392±22 pmol of bilirubin/mg of protein/h; heme oxygenase activity (heme oxygenase; 6 h, 50 μM, absence of NAC): 492±30 pmol of bilirubin/mg of protein/h; heme oxygenase activity (heme oxygenase; 6 h, 50 μM, presence of 1 mM NAC): 752±78 pmol of bilirubin/mg of protein/h; effect of NAC on the increase in heme oxygenase activity (heme oxygenase; 6 h, 15 and 30 μM, 1 mM NAC): not significantly affected by the presence of NAC; elevation in heme oxygenase activity (heme oxygenase; higher concentrations (50-100 μM)): 1.9 fold; glutathione oxidation (GSSG) ([2]; 6 h, 50 μM): caused oxidation; intracellular GSSG ([2]; 6 h, 15 and 30 μM): significant increase; intracellular GSH ([2]; 24 h, 15, 30, and 50 μM): concentration-dependent decrease in GSH; intracellular GSSG ([2]; 24 h, 15, 30, and 50 μM): gradual and substantial increase in GSSG levels

From US20040167217A1, “Neuroprotective effects of polyphenolic compounds” (priority 2003, published 2004)
